This is an account of results in patent publication US20260055079A1, “PHTHALAZINONE COMPOUNDS AS PARP7 INHIBITORS” (AZKARRA THERAPEUTICS, INC., priority 2022, published 2026).

One assay deals with His-GST-PARP7 (Homo sapiens (Human), UniProt Q7Z3E1). The experiment in a line: PARP7 biochemical assay. Particulars: read-out: PARP7 IC50.
In assay [1] the test system is NCI-H1373 (human lung adenocarcinoma) cells. Description: Cell proliferation assay (CellTiter-Glo), NCI-H1373. The assay is classed as cell-based. Particulars: Homo sapiens, NCI-H1373, 144 h, read-out: NCI-H1373 GI50. In general terms: In ATP-based viability assays light output follows the ATP content of the culture.
In the next assay the target is PARP2 (Homo sapiens (Human), UniProt Q9UGN5). The experiment in a line: PARP2 biochemical assay.
PARP2, sequence (Q9UGN5 whole entry): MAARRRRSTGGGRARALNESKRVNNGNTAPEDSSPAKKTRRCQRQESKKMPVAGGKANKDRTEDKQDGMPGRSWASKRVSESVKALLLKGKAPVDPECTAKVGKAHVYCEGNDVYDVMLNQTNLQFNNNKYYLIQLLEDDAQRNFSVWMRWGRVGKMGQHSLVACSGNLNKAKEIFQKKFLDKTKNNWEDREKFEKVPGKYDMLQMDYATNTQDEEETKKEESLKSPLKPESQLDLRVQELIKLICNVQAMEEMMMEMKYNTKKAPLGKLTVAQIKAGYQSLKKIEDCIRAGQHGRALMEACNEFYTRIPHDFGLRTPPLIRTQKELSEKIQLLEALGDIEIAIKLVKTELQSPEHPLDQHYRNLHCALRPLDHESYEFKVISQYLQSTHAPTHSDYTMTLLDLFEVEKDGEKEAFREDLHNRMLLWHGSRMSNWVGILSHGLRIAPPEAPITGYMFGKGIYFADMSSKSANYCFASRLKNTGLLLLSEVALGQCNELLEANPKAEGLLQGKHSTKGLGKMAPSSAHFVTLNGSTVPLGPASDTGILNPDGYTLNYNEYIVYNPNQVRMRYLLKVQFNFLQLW

Like-named read-outs stand apart in the source and are kept apart here.

His-GST-PARP7, sequence (Q7Z3E1 whole entry): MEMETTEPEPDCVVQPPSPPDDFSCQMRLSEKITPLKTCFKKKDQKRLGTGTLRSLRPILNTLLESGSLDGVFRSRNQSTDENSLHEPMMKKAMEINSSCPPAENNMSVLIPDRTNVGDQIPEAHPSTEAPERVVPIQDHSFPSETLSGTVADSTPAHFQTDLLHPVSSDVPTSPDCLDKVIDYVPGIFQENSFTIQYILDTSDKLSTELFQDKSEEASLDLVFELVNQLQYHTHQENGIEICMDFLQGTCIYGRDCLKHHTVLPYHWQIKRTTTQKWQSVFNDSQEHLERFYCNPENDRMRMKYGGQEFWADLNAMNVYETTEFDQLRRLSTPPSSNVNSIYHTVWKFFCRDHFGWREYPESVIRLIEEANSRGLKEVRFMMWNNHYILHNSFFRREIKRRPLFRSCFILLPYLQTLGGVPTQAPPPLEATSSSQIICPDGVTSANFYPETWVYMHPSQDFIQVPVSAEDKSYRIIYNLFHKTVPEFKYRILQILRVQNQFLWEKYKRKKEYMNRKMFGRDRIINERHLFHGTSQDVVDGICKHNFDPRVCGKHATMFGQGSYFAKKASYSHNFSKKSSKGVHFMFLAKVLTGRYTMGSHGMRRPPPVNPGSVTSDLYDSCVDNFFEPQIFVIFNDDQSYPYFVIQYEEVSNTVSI

As to `N#Cc1ccc(N2CCN(C(=O)c3cc(Cc4n[nH]c(=O)c5ccc(NCC6CC6)cc45)ccc3F)CC2)nc1` [Example 20, 6-(4-(5-((7-(cyclopropylmethylamino)-4-oxo-3,4-dihydrophthalazin-1-yl)methyl)-2-fluorobenzoyl)piperazin-1-yl)nicotinonitrile], the concentration for half-maximal inhibition (IC50) on His-GST-PARP7 and on PARP2 (read-out: PARP2 IC50) was below 50 nM in each case. Moreover, the GI50 in assay [1] (6 days, CellTiter-Glo) lay within 100 to 1000 nM.

For `CNc1ccc2c(=O)[nH]nc(Cc3ccc(F)c(C(=O)N4CCN(c5ccc(C#N)cn5)CC4)c3)c2c1` [Example 16, 6-(4-(2-fluoro-5-((7-(methylamino)-4-oxo-3,4-dihydrophthalazin-1-yl)methyl)benzoyl)piperazin-1-yl)nicotinonitrile], the IC50 at His-GST-PARP7 and at PARP2 (read-out: PARP2 IC50) was below 50 nM each time. Also, the GI50 in assay [1] lay in the range of 1000 to 5000 nM.

Take `N#Cc1ccc(N2CCN(C(=O)c3cc(Cc4n[nH]c(=O)c5ccc(N6CC(C(F)(F)F)C6)cc45)ccc3F)CC2)nc1` [Example 34, 6-(4-(2-Fluoro-5-((4-oxo-7-(3-(trifluoromethyl)azetidin-1-yl)-3,4-dihydrophthalazin-1-yl)methyl)benzoyl)piperazin-1-yl)nicotinonitrile]: the concentration for half-maximal inhibition (IC50) on His-GST-PARP7 is below 50 nM; at PARP2 (read-out: PARP2 IC50), 500 to 2000 nM. For the same compound, in assay [1] (6 days, CellTiter-Glo), the GI50 is 100 to 1000 nM.

As for `N#Cc1ccc(N2CCN(C(=O)c3cc(Cc4n[nH]c(=O)c5ccc(N6CC7(CC(O)C7)C6)cc45)ccc3F)CC2)nc1` [Example 23, 6-(4-(2-Fluoro-5-((7-(6-hydroxy-2-azaspiro[3.3]heptan-2-yl)-4-oxo-3,4-dihydrophthalazin-1-yl)methyl)benzoyl)piperazin-1-yl)nicotinonitrile], the figures for the IC50 at His-GST-PARP7 and at PARP2 (read-out: PARP2 IC50) were below 50 nM and 500 to 2000 nM, respectively. For the same compound, the concentration for 50% growth inhibition (GI50) in assay [1] (6 days, CellTiter-Glo) is above 5000 nM.

Take `CC#Cc1ccc2c(=O)[nH]nc(Cc3cc(F)c(F)c(C(=O)N4CCN(c5ccc(C#N)cn5)CC4)c3)c2c1` [Example 74, 6-(4-(2,3-Difluoro-5-((4-oxo-7-(prop-1-ynyl)-3,4-dihydrophthalazin-1-yl)methyl)benzoyl)piperazin-1-yl)nicotinonitrile]: the values for the half-inhibitory concentration (IC50) on His-GST-PARP7 and at PARP2 (read-out: PARP2 IC50) were below 50 nM and 50 to 100 nM, respectively. The 50% growth inhibitory concentration (GI50) in assay [1] (6 days, CellTiter-Glo) lay in the range of 100 to 1000 nM.

For `N#Cc1ccc(N2CCN(C(=O)c3cc(Cc4n[nH]c(=O)c5ccc(OC(F)(F)F)cc45)ccc3F)CC2)nc1` [Example 30, 6-(4-(2-fluoro-5-((4-oxo-7-(trifluoromethoxy)-3,4-dihydrophthalazin-1-yl)methyl)benzoyl)piperazin-1-yl)nicotinonitrile], the IC50 at His-GST-PARP7 is below 50 nM; on PARP2 (read-out: PARP2 IC50), 100 to 500 nM. Moreover, the GI50 in assay [1] (6 days, CellTiter-Glo) was 100 to 1000 nM.

For `N#Cc1ccc(N2CCN(C(=O)c3cc(Cc4n[nH]c(=O)c5ccc(OC6CC6)cc45)ccc3F)CC2)nc1` [Example 13, 6-(4-(5-((7-Cyclopropoxy-4-oxo-3,4-dihydrophthalazin-1-yl)methyl)-2-fluorobenzoyl)piperazin-1-yl)nicotinonitrile], the IC50 was below 50 nM at His-GST-PARP7 and 100 to 500 nM against PARP2. The concentration for 50% growth inhibition (GI50) in assay [1] was in the range of 100 to 1000 nM.

Turning to `N#Cc1ccc(N2CCN(C(=O)c3cc(Cc4n[nH]c(=O)c5ccc(C#CC(F)(F)F)cc45)ccc3F)CC2)nc1` [Example 24, 6-(4-(2-Fluoro-5-((4-oxo-7-(3,3,3-trifluoroprop-1-ynyl)-3,4-dihydrophthalazin-1-yl)methyl)benzoyl)piperazin-1-yl)nicotinonitrile], the values for the IC50 on His-GST-PARP7 and on PARP2 (read-out: PARP2 IC50) were below 50 nM and 100 to 500 nM, respectively.

Regarding `CC#Cc1ccc2c(=O)[nH]nc(Cc3ccc(F)c(C(=O)NCCN(CC)c4ccc(C#N)cn4)c3)c2c1` [Example 197, N-(2-((5-cyanopyridin-2-yl)(ethyl)amino)ethyl)-2-fluoro-5-((4-oxo-7-(prop-1-yn-1-yl)-3,4-dihydrophthalazin-1-yl)methyl)benzamide], the values for the 50% inhibitory concentration (IC50) on His-GST-PARP7 and on PARP2 (read-out: PARP2 IC50) were below 50 nM and above 2000 nM, respectively.

Consider `N#Cc1ccc(N2CCN(C(=O)c3cc(Cc4n[nH]c(=O)c5ccc(N6CC7(CCC7)C6)cc45)ccc3F)CC2)nc1` [Example 31, 6-(4-(2-Fluoro-5-((4-oxo-7-(2-azaspiro[3.3]heptan-2-yl)-3,4-dihydrophthalazin-1-yl)methyl)benzoyl)piperazin-1-yl)nicotinonitrile], for which the values for the concentration for half-maximal inhibition (IC50) on His-GST-PARP7 and at PARP2 (read-out: PARP2 IC50) were below 50 nM and above 2000 nM, respectively. Moreover, the concentration for 50% growth inhibition (GI50) in assay [1] (6 days, CellTiter-Glo) is 100 to 1000 nM.

As for `N#Cc1ccc(N2CCN(C(=O)c3cc(Cc4n[nH]c(=O)c5ccc(C6CC6)cc45)ccc3F)CC2)nc1` [Example 40, 6-(4-(5-((7-Cyclopropyl-4-oxo-3,4-dihydrophthalazin-1-yl)methyl)-2-fluorobenzoyl)piperazin-1-yl)nicotinonitrile], the IC50 on His-GST-PARP7 is below 50 nM; at PARP2 (read-out: PARP2 IC50), 100 to 500 nM.

For “6-(4-(2-Fluoro-5-((4-oxo-7-(prop-2-yn-1-yloxy)-3,4-dihydrophthalazin-1-yl)methyl)benzoyl)piperazin-1-yl)nicotinonitrile [Example 26]”, the IC50 at His-GST-PARP7 was below 50 nM; at PARP2 (read-out: PARP2 IC50) it was 100 to 500 nM.

As for `N#Cc1ccc(N2CCN(C(=O)c3cc(Cc4n[nH]c(=O)c5ccc(N6CC(F)(F)C6)cc45)ccc3F)CC2)nc1` [Example 18, 6-(4-(5-((7-(3,3-Difluoroazetidin-1-yl)-4-oxo-3,4-dihydrophthalazin-1-yl)methyl)-2-fluorobenzoyl)piperazin-1-yl)nicotinonitrile], the concentration for half-maximal inhibition (IC50) on His-GST-PARP7 was below 50 nM; on PARP2 (read-out: PARP2 IC50), 100 to 500 nM.

As to `O=C(c1cc(Cc2n[nH]c(=O)c3ccc(C#CC4CC4)cc23)ccc1F)N1CCN(c2ncc(C(F)(F)F)cn2)CC1` [Example 47, 6-(Cyclopropylethynyl)-4-(4-fluoro-3-(4-(5-(trifluoromethyl)pyrimidin-2-yl)piperazine-1-carbonyl)benzyl)phthalazin-1(2H)-one], the IC50 lay in the range of 100 to 500 nM at His-GST-PARP7 and 500 to 2000 nM on PARP2 (read-out: PARP2 IC50).

Regarding “4-(4-Fluoro-3-(4-(5-(trifluoromethyl)pyrimidin-2-yl)piperazine-1-carbonyl)benzyl)-6-isobutylphthalazin-1(2H)-one [Example 44]”, the concentration for half-maximal inhibition (IC50) was below 50 nM on His-GST-PARP7 and 50 to 100 nM at PARP2 (read-out: PARP2 IC50).

In the case of `CC#Cc1cc(Cl)c2c(=O)[nH]nc(Cc3ccc(F)c(C(=O)N4CCN(c5ccc(C#N)cn5)CC4)c3)c2c1` [Example 85, 6-(4-(5-((5-chloro-4-oxo-7-(prop-1-yn-1-yl)-3,4-dihydrophthalazin-1-yl)methyl)-2-fluorobenzoyl)piperazin-1-yl)nicotinonitrile], the IC50 on His-GST-PARP7 was in the range of 100 to 500 nM; on PARP2 (read-out: PARP2 IC50), 50 to 100 nM. Besides, the GI50 in assay [1] (6 days, CellTiter-Glo) was below 100 nM.

With `CC#Cc1ccc2c(=O)[nH]nc(C(C)N(C)CCC(=O)N3CCN(c4ncc(C(F)(F)F)cn4)CC3)c2c1` (stereo not shown) [Example 193, 4-(1-(methyl(3-oxo-3-(4-(5-(trifluoromethyl)pyrimidin-2-yl)piperazin-1-yl)propyl)amino)ethyl)-6-(prop-1-yn-1-yl)phthalazin-1(2H)-one], the results for the half-inhibitory concentration (IC50) at His-GST-PARP7 and at PARP2 (read-out: PARP2 IC50) were below 50 nM and above 2000 nM, respectively. The 50% growth inhibitory concentration (GI50) in assay [1] (6 days, CellTiter-Glo) was 100 to 1000 nM.

Turning to `O=C(c1cc(Cc2n[nH]c(=O)c3ccc(C4CC4)cc23)ccc1F)N1CCN(c2ncc(C(F)(F)F)cn2)CC1` [Example 45, 6-Cyclopropyl-4-(4-fluoro-3-(4-(5-(trifluoromethyl)pyrimidin-2-yl)piperazine-1-carbonyl)benzyl)phthalazin-1(2H)-one], the concentration for half-maximal inhibition (IC50) is below 50 nM on His-GST-PARP7 and 100 to 500 nM at PARP2 (read-out: PARP2 IC50).

One may read the IC50 as the concentration at which inhibition is half-maximal. By GI50 is commonly meant the concentration giving 50% growth inhibition.
